Source: patent publication US10329282B2, “Rho-associated protein kinase inhibitor, pharmaceutical composition comprising the same, as well as preparation method and use thereof” (Beijing Tide Pharmaceutical Co., Ltd., priority 2017, dated 2019)

Molecular target: ROCK2 (Homo sapiens (Human), UniProt O75116)
Experiment: ROCK2 kinase IC50 assay (CISBIO HTRF KinEASE-STK S2 kit)
Assay type: biochemical
Details: ROCK2 from Carna Biosciences, 2 h incubation at room temperature
In short: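 ROCK2 reaction with STK-S2 substrate and ATP (5× working solutions 1.5 μM each), 2 h at room temperature; 9-point compound dilutions from 10000 nM. HTRF 665/615 emission ratio gave % inhibition versus kinase and no-kinase controls; IC50 by curve fit.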

ROCK2, sequence (O75116 1-553): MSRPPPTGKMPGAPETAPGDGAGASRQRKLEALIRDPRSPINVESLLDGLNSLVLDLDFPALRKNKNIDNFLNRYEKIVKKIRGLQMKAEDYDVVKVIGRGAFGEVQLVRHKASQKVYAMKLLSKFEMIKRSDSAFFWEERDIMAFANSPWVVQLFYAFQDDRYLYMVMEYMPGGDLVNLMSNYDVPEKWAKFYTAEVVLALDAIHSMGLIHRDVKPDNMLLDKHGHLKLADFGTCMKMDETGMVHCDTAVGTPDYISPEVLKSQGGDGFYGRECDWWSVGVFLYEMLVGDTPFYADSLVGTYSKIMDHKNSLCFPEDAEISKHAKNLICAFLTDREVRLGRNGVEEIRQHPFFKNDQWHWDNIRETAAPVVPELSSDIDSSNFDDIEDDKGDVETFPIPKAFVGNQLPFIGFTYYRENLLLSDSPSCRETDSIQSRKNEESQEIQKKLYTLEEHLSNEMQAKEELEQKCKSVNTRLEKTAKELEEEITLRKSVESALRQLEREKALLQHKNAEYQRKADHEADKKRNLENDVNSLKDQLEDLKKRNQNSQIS

Row | Compound | IC50 [nM]
1 | CCN(CC)C(=O)c1cc2ccc(-c3nccc(Nc4ccc(-c5cn[nH]c5)cc4)n3)cc2[nH]1 [TDI01332, 6-(4-((4-(1H-pyrazol-4-yl)phenyl)amino)pyrimidin-2-yl)-N,N-diethyl-1H-indole-2-carboxamide] | 257
2 | CC(NC(=O)c1cc2ccc(-c3nccc(Nc4ccc5[nH]ncc5c4)n3)cc2[nH]1)c1ccccc1 (stereo not drawn) [TDI01140, 6-(4-((1H-indazol-5-yl)amino)pyrimidin-2-yl)-N-(1-phenylethyl)-1H-indole-2-carboxamide] | 109
3 | CC(CO)NC(=O)c1cc2ccc(-c3nccc(Nc4ccc5[nH]ncc5c4)n3)cc2[nH]1 (stereo not drawn) [TDI01176, 6-(4-((1H-indazol-5-yl)amino)pyrimidin-2-yl)-N-(1-hydroxypropan-2-yl)-1H-indole-2-carboxamide] | 28
4 | CN(C(=O)c1cc2ccc(-c3nccc(Nc4ccc(-c5cn[nH]c5)cc4)n3)cc2[nH]1)C1CCC1 [TDI01420] | 477
5 | Cn1cc(NC(=O)c2cc3ccc(-c4nccc(Nc5ccc6[nH]ncc6c5)n4)cc3[nH]2)cn1 [TDI01134, 6-(4-((1H-indazol-5-yl)amino)pyrimidin-2-yl)-N-(1-methyl-1H-pyrazol-4-yl)-1H-indole-2-carboxamide] | 62
6 | O=C(Nc1ccncc1Cl)c1cc2ccc(-c3nccc(Nc4ccc(-c5cn[nH]c5)cc4)n3)cc2[nH]1 [TDI01354, 6-(4-((4-(1H-pyrazol-4-yl)phenyl)amino)pyrimidin-2-yl)-N-(3-chloropyridin-4-yl)-1H-indole-2-carboxamide] | 254
